The target in the assay is T1, human F508del CFTR (Homo sapiens, UniProt P13569, DEL508-508).
T1 construct: expressed in transfected cells; host or cells: Fisher Rat Thyroid (FRT) cells
Kind of assay: CFTR-YFP High Throughput Assay. The class given is cell-based. Conditions: FRT cells expressing human F508del CFTR and YFP; for Emax: EMax normalized to the positive control, read-out: % Efficacy. The protocol:
Assays for Detecting and Measuring the Effect of Compounds on F508del-CFTR Channels CFTR-YFP High Throughput Assay-CFTR Corrector Protocol:
This protocol is designed to selectively screen small molecule compounds for F508del CFTR corrector activities in the HTS YFP (yellow fluorescent protein) flux assay. In this protocol, the cells are incubated with testing compounds for 24 hours, washed with PBS, stimulated with forskolin and a standard potentiator, and fluorescence in each plate well is measured kinetically read on a 384-well HTS plate reader, such as the Hamamatsu FDSS-6000.
YFP fluorescence intensity values are acquired at high speed before and after iodide buffer is injected to the assay cells. Iodide enters the cells via active CFTR channels in the plasma membrane, and quenches the YFP fluorescence. The rate of fluorescence quenching is proportionate to the total CFTR activity in the cell membrane. F508del CFTR correctors increase the number of CFTR molecules in the testing cell plasma membrane, and thereby accelerate YFP quenching.
This method was initially developed for bench top plate readers (Galietta et al., 2001), and was adapted to the HTS format (Sui et al. Assay Drug Dev. Technol. 2010).
Fisher Rat Thyroid (FRT) cells stably expressing both human F508del CFTR and a halide-sensitive yellow fluorescent protein (YFP-H148Q/I152L 25,22) (Galietta et al. Am. J. Physiol Cell Physiol 281(5), C1734, 2001) were cultured on plastic surface in Coon's modified Ham's F12 medium supplemented with FBS 10%, L-glutamine 2 mM, penicillin 100 U/ml, and streptomycin 100 µg/ml. G418 (0.75-1.0 mg/ml) and zeocin (3.2 ug/ml) were used for selection of FRT cells expressing F508del CFTR and YFP. For primary screening, FRT cells were plated into 384-well black wall, transparent bottom microtiter plates (Costar; Corning Inc.) at a cell density of 20,000-40,000 per well. Test compound was applied to the cells at varying concentrations ranging from 2 nM-40 μM in either a 2-fold or 3-fold dilution series. Cells were incubated in a cell culture incubator at 37° C. with 5% CO2 for 24-26 h. Assay plates were washed with DPBS media (Thermo, cat# SH30028.02) to remove unbound cells and compound. Stimulation media (25 μL) containing 20 μM Forskolin & 30 μM P3 [6-(Ethyl-phenyl-sulfonyl)-4-oxo-1,4-dihydro-quinoline-3-carboxylic acid 2-methoxy-benzylamide] in Hams F-12 coon's modified media was added to the plate wells and incubated at room temperature for 60-120 min. […] (10 mM HEPES, 1 mM MgCl2, 3 mM KCl, 1 mM CaCl2, 150 mM NaI) was then added and fluorescence quench curves (Excitation 500 nm/Emission 540 nm; exposure 136 ms) were immediately recorded on an FDSS-6000 plate reader (Hamamatsu). Quench rates were derived from least squares fitting of the data as described by Sui et al (2010).
CFTR-YFP High Throughput Assay-CFTR Potentiator Protocol:
This protocol is designed to selectively screen small molecule compounds for F508del CFTR potentiator activities in the HTS YFP flux assay. Such compounds act acutely to stimulate CFTR already expressed on the membrane surface. In this protocol, the cells are incubated at 27° C. for 24 hours to homogeneously boost F508del CFTR expression in the cell membrane (low temperature correction), washed with PBS, treated with test compound, and CFTR activity is stimulated with forskolin for 1-2 hr. Measurement of ion flux is initiated by addition of iodide-containing buffer, and YFP quenching is kinetically recorded using a 384-well HTS plate reader, such as the Hamamatsu FDSS-6000.
YFP fluorescence intensity values are acquired at high speed over a 1 min time course before and after iodide buffer is injected to the assay cells. Iodide enters the cells via active CFTR channels in the plasma membrane, and quenches the YFP fluorescence. The rate of fluorescence quenching is proportionate to total CFTR activity in the cell membrane. […]

pEC50: −log10 of the molar value.

T1 sequence (P13569 with tags, fused parts or gaps DEL508-508): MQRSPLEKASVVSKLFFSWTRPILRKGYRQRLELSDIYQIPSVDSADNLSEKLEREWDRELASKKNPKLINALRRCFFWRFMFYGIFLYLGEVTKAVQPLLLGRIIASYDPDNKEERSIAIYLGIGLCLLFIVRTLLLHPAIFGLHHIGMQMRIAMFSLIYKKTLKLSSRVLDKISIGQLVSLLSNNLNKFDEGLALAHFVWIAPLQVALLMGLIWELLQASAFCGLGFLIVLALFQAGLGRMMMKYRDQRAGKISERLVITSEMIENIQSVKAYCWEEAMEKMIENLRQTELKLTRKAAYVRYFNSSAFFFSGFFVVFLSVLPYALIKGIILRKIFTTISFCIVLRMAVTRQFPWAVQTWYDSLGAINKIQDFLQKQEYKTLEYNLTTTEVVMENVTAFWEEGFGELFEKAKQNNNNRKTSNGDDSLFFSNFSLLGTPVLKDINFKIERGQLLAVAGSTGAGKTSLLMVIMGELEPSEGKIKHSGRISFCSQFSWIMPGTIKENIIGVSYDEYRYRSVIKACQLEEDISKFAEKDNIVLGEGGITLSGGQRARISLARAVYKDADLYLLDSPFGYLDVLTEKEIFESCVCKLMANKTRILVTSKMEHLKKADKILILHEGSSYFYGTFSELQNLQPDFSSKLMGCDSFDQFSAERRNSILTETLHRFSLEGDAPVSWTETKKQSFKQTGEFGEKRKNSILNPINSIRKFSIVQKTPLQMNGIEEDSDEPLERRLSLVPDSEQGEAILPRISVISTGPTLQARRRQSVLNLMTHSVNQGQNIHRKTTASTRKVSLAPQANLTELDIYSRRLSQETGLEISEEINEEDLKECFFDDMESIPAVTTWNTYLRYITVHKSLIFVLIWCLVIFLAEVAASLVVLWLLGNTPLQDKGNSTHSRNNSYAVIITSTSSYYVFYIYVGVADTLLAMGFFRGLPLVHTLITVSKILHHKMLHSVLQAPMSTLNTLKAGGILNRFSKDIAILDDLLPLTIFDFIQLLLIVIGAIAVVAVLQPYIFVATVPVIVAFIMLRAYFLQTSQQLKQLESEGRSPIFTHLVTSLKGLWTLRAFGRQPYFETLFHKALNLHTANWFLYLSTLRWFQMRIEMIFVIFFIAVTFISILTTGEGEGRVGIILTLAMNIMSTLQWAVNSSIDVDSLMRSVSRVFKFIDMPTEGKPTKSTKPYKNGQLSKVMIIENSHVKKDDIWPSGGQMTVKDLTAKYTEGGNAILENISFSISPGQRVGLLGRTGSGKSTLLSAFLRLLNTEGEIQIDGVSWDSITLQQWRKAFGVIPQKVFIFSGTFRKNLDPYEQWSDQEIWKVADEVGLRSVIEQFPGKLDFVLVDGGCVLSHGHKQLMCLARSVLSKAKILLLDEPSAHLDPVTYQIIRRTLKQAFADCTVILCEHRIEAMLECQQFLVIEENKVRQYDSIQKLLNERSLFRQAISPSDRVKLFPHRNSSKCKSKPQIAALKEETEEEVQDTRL

Consider `CCN(C(=O)c1nn(C(C)C)c(=O)c2c1c1ccccc1n2C)c1cc(Cl)ccc1C#N` [Example 205, N-(5-chloro-2-cyanophenyl)-N-ethyl-3-isopropyl-5-methyl-4-oxo-4,5-dihydro-3H-pyridazino[4,5-b]indole-1-carboxamide], for which the Emax was 30 to 80%.
For the molecule `CCN(C(=O)c1nn(-c2ccc(C(F)(F)F)cc2)c(=O)c2c1c1ccccc1n2C)c1ccccc1` [Example 194, N-ethyl-5-methyl-4-oxo-N-phenyl-3-(4-(trifluoromethyl)phenyl)-4,5-dihydro-3H-pyridazino[4,5-b]indole-1-carboxamide], the Emax lay within 30 to 80% and the negative logarithm of the EC50 (pEC50) is less than 4.70.
For `CC(C)N(C(=O)c1nn(Cc2ccccc2)c(=O)c2c1c1ccccc1n2C)c1ccccc1` [Example 212, 3-benzyl-N-isopropyl-5-methyl-4-oxo-N-phenyl-4,5-dihydro-3H-pyridazino[4,5-b]indole-1-carboxamide], in that order: 30 to 80% and greater than 5.00.
`CCN(C(=O)c1nn(C)c(=O)c2c1c1ccccc1n2C)c1ccc2c(c1)OC(F)(F)O2` [Example 211, N-(2,2-difluorobenzo[d][1,3]dioxol-5-yl)-N-ethyl-3,5-dimethyl-4-oxo-4,5-dihydro-3H-pyridazino[4,5-b]indole-1-carboxamide]: the Emax was 30 to 80% and the pEC50 was greater than 5.00.
Turning to `[2H]C([2H])([2H])N(C(=O)Cn1nc(-c2cccc(C#N)c2)c2ccc(OC)cc2c1=O)c1ccc2nc(C)oc2c1` [Example 86, 2-(4-(3-cyanophenyl)-7-methoxy-1-oxophthalazin-2(1H)-yl)-N-(methyl-d3)-N-(2-methylbenzo[d]oxazol-6-yl)acetamide], the Emax was greater than 80% and the pEC50 is greater than 5.00.
For `CC(C)N(C(=O)c1nn(-c2ccccc2)c(=O)c2c1c1ccccc1n2C)c1ccc(Cl)cc1` [Example 190, N-(4-chlorophenyl)-N-isopropyl-5-methyl-4-oxo-3-phenyl-4,5-dihydro-3H-pyridazino[4,5-b]indole-1-carboxamide], in that order: 30 to 80% and greater than 5.00.
Consider `CCN(C(=O)Cn1nc(-c2ccc(S(N)(=O)=O)cc2)c2ccccc2c1=O)c1ccc2c(c1)OC(F)(F)O2` [Example 18, N-(2,2-difluorobenzo[d][1, 3]dioxol-5-yl)-N-ethyl-2-(1-oxo-4-(4-sulfamoylphenyl)phthalazin-2(1H)-yl)acetamide], for which the Emax was greater than 80% and the pEC50 is 4.70 to 5.00.
In the same order, the values of `Cc1nc2ccc(N(C)C(=O)Cn3nc(-c4cccc(Cl)c4)c4ccc(OCc5ccccc5)cc4c3=O)cc2o1` [Example 116, 2-(7-(benzyloxy)-4-(3-chlorophenyl)-1-oxophthalazin-2(1H)-yl)-N-methyl-N-(2-methylbenzo[d]oxazol-6-yl)acetamide] are greater than 80% and greater than 5.00.
Consider `CCN(C(=O)c1nn(C2CCN(S(=O)(=O)c3ccc4c(c3)OC(F)(F)O4)CC2)c(=O)c2c1c1ccccc1n2C)c1ccccc1` [Example 200, 3-(1-((2,2-difluorobenzo[d][1, 3]dioxol-5-yl)sulfonyl)piperidin-4-yl)-N-ethyl-5-methyl-4-oxo-N-phenyl-4,5-dihydro-3H-pyridazino[4,5-b]indole-1-carboxamide], for which the Emax fell in the range of 30 to 80% and the pEC50 was greater than 5.00.
For `CCc1ccc(N(CC)C(=O)Cn2nc(Cc3cccnc3)c3ccncc3c2=O)cc1` [Example 41, N-ethyl-N-(4-ethylphenyl)-2-(4-oxo-1-(pyridin-3-ylmethyl)pyrido[3,4-d]pyridazin-3(4H)-yl)acetamide], in that order: 30 to 80% and greater than 5.00.
Consider `CCN(C(=O)Cn1ncc2c(c1=O)c1ccccc1n2Cc1ccccn1)c1ccc2c(c1)OC(F)(F)O2` [Example 131, N-(2,2-difluorobenzo[d][1, 3]dioxol-5-yl)-N-ethyl-2-(1-oxo-5-(pyridin-2-ylmethyl)-1H-pyridazino[4,5-b]indol-2(5H)-yl)acetamide], for which the Emax lay within 30 to 80%.
As for `COc1ccc(N(C)C(=O)Cn2nc(Cc3cccnc3)c3ccccc3c2=O)cc1` [Example 27, N-(4-methoxyphenyl)-N-methyl-2-(1-oxo-4-(pyridin-3-ylmethyl)phthalazin-2(1H)-yl)acetamide], the Emax was in the range of 30 to 80%.
For `CCOc1cc2c(=O)n(CC(=O)N(C)c3ccc4c(c3)OC(F)(F)O4)nc(-c3cccc(C#N)c3)c2cc1Cl` [Example 122, 2-(6-chloro-4-(3-cyanophenyl)-7-ethoxy-1-oxophthalazin-2(1H)-yl)-N-(2,2-difluorobenzo[d][1,3]dioxol-5-yl)-N-methylacetamide], the Emax is greater than 80% and the negative logarithm of the EC50 (pEC50) was greater than 5.00.
Consider `CCc1ccc(N(CC)C(=O)Cn2nc(-c3ccc(O)cc3)c3ccccc3c2=O)cc1` [Example 2, N-ethyl-N-(4-ethylphenyl)-2-(4-(4-hydroxyphenyl)-1-oxophthalazin-2(1H)-yl)acetamide], for which the Emax was in the range of 10 to 30%.
`CCN(C(=O)Cn1nc(-c2ccc(C(N)=O)cc2)c2ccccc2c1=O)c1ccc2c(c1)OC(F)(F)O2` [Example 19, 4-(3-(2-((2,2-difluorobenzo[d][1,3]dioxol-5-yl)(ethyl)amino)-2-oxoethyl)-4-oxo-3,4-dihydrophthalazin-1-yl)benzamide]: the Emax was greater than 80% and the negative logarithm of the EC50 (pEC50) was 4.70 to 5.00.
For the molecule `CCN(C(=O)Cn1nc(Cc2cccnc2)c2c(OCCOC)cccc2c1=O)c1ccc2c(c1)OC(F)(F)O2` [Example 62, N-(2,2-difluorobenzo[d][1,3]dioxol-5-yl)-N-ethyl-2-(5-(2-methoxyethoxy)-1-oxo-4-(pyridin-3-ylmethyl)phthalazin-2(1H)-yl)acetamide], the Emax was 30 to 80%.
Same read-out and setting: the value for `CCN(C(=O)Cn1nc(C(=O)Nc2ccccc2C#N)c2ccccc2c1=O)c1ccc2c(c1)OC(F)(F)O2` [Example 124, N-(2-cyanophenyl)-3-(2-((2,2-difluorobenzo[d][1, 3]dioxol-5-yl)(ethyl)amino)-2-oxoethyl)-4-oxo-3,4-dihydrophthalazine-1-carboxamide] was 30 to 80%.
`CCN(C(=O)Cn1nc(-c2ccc(C(=O)O)cc2)c2ccccc2c1=O)c1ccc2c(c1)OC(F)(F)O2` [Example 20, 4-(3-(2-((2,2-difluorobenzo[d][1,3]dioxol-5-yl)(ethyl)amino)-2-oxoethyl)-4-oxo-3,4-dihydrophthalazin-1-yl)benzoic acid]: the Emax fell in the range of 30 to 80% and the pEC50 is less than 4.70.
In the same order, the values of `CCN(C(=O)c1nn(C)c(=O)c2c1c1ccccc1n2C)c1cccc(Cl)c1` [Example 209, N-(3-chlorophenyl)-N-ethyl-3,5-dimethyl-4-oxo-4,5-dihydro-3H-pyridazino[4,5-b]indole-1-carboxamide] are 30 to 80% and greater than 5.00.
For `Cn1c2ccccc2c2c(-c3ccccc3)nn(C3CCCCC3)c(=O)c21` [Example 241, 3-cyclohexyl-5-methyl-1-phenyl-3,5-dihydro-4H-pyridazino[4,5-b]indol-4-one], in that order: 30 to 80% and greater than 5.00.
Regarding `CCN(C(=O)c1nn(C[C@@H](O)COC)c(=O)c2c1c1ccccc1n2C)c1ccccc1` [Example 228, (R)-N-ethyl-3-(2-hydroxy-3-methoxypropyl)-5-methyl-4-oxo-N-phenyl-4,5-dihydro-3H-pyridazino[4,5-b]indole-1-carboxamide], the Emax was 30 to 80% and the pEC50 was greater than 5.00.

As usually defined, the pEC50 is the negative decadic logarithm of the EC50, by convention in mol/L.

The values above are taken from patent US10370366B2 (Flatley Discovery Lab, LLC, priority 2013, dated 2019).
